Consider two compounds from patent US20070293666A1, “Optical Filter and Its Applications, and Porphyrin Compound Used in Optical Filter” (Mitsui Chemicals, Inc., priority 2004, published 2007).

Common to all, as to format: physicochemical
Data set [1] can be described thus: Absorption spectrum in chloroform (maximum absorption wavelength, gram absorption coefficient, 550/525 nm coefficient ratio). Conditions: for εg (gram absorption coefficient) / λmax: chloroform solution. How it is done: (§1) Compounds represented by the compound Nos. 1-1, 1-2, 1-3, 1-4 and 1-7 (Table 1-1) were synthesized in the same manner as in Examples 1-1 and 1-2. With respect to compounds synthesized in Example 1-2 and Synthesis Example 1-1 along with these compounds, the maximum absorption wavelength (λmax), the gram absorption coefficient (εg) and solubility were measured.
(§2) λmax and εg are values in the chloroform solution, while the solubility is weight % based on acetone.
With respect to the compounds represented by the compound Nos. 1-2, 1-3, 1-6 and 1-7 synthesized in Examples 1-2 and 1-3 (corresponding to compounds (3-B), (3-C), (3-E) and (3-F) respectively) along with the obtained compound (3-A), the maximum absorption wavelength and the ratio of the absorption coefficient at a wavelength of 550 nm to the absorption coefficient at a wavelength of 525 nm, which were measured in a chloroform solvent, are shown in Table 3-1. [drawing 26] [drawing 27] [drawing 28] [drawing 29]

The nature of data set [2]: Solubility in acetone. Conditions: for Solubility 0.1%: 0.1 weight % based on acetone; for Solubility 0.2%: 0.2 weight % based on acetone; for Solubility 1.0%: 1.0 weight % based on acetone. More on the design: key: ∘: completely dissolved; x: not completely dissolved. As to the method: as §1, §2
Data set [3] can be described thus: Light transmittance of optical filter (dye-containing acrylic adhesive sheet, 1000 ppm dye). Conditions: dye 1000 (wt)ppm in acrylic adhesive, 25 μm. As to the method:
When the compound (3-A) was dispersed and dissolved in a solvent of ethyl acetate and toluene (weight ratio 50:50) and dried, a dye-containing diluting agent for an acrylic adhesive was prepared such that the dye concentration in the resin was 1000 (wt)ppm. Subsequently, the acrylic adhesive (a copolymer of butyl acrylate and acrylic acid (Product name: DBBOND, manufactured by Diabond Industry Co., Ltd.)) and a dye-containing diluting agent were mixed (weight ratio 80:20), and continuously applied on a mold releasing layer of a mold releasing film comprising a polyethylene terephthalate film and a silicone mold releasing layer according to a bar coating method, and the resulting material was dried. Then, the other mold releasing film was attached to the coating surface to prepare a dye-containing adhesive sheet having a thickness of 25 μm with mold releasing films having different mold releasing forces at both sides.
The mold releasing film on one side of the prepared adhesive sheet was peeled away and the resulting sheet was attached to a transparent acrylic resin (manufactured by Mitsubishi Rayon Co., Ltd., Acrylite, thickness: 2 mm), while the mold releasing film on the other side thereof was further peeled away and an ultraviolet blocking film (manufactured by Teijin Co., Ltd., HB Film, thickness: 75 μm) was attached to prepare an optical filter.
With respect to the obtained optical filter, the light transmittance in a wavelength of from 300 to 800 nm was measured by using a spectrophotometer (Product name: U-3400, manufactured by Hitachi, Ltd.) in accordance with JIS R3106. A percentage of light transmittance at a wavelength of 550 nm to light transmittance at a wavelength of 525 nm was obtained.

Data set [4] is described as follows: Light resistance test / artificial sunlight irradiation test of optical filter. Conditions: visible light 380 to 780 nm. As to the method: To evaluate light resistance of the dye, a sample prepared in the same method as in evaluation of heat resistance is used. The absorption retention rate represented by the above equation (1) is measured in the same manner as in heat resistance. However, in this case, the obtained sample is not kept under the environment of 80° C., but the above visible light ray is irradiated on a side of the ultraviolet blocking film of the sample in a room at a temperature of 30±10° C., a humidity of 50±20% for a predetermined time. Tmax,1 represents light transmittance in a maximum absorption wavelength after the above visible light ray is irradiated for a predetermined time. When there are a plurality of absorption maxima, Tmax,0 is light transmittance at a maximum absorption wavelength showing the highest absorption coefficient. Tmax,1 represents light transmittance at the same wavelength as that in Tmax,0 or at a maximum absorption wavelength nearest to the wavelength in Tmax,0.
With respect to the optical filters obtained from the compounds (3-A) to (3-F), environmental accelerated tests were carried out by artificial sunlight irradiation using a solar simulator (manufactured by Ushio Inc.). A visible light ray in a wavelength of from 380 to 780 nm was irradiated on the ultraviolet blocking film of the prepared optical filter at 50 mW/cm^2 for 250 hours in a room at a temperature of 30±10° C. and a humidity of 50±20%. At this time, an absorption retention rate represented by the above equation (1) was obtained.
(§3) With respect to the optical filters obtained from the compounds (3-A) and (3-B), environmental accelerated tests of high temperature, high-temperature/high-humidity and artificial sunlight irradiation were carried out. In the test, a constant temperature chamber at 80° C. (DN-61, manufactured by Yamato Scientific Co., Ltd.), a constant temperature and humidity chamber at 60° C. and 90% RH (Product name, FX2200, manufactured by Kusumoto Chemicals, Ltd.) and a solar simulator (manufactured by Ushio Inc.) were respectively used. A visible light ray in a wavelength of from 380 to 780 nm was irradiated on a surface of the ultraviolet blocking film of the above optical filter at 50 mW/cm^2 for a predetermined time in a room at a temperature of 30±10° C. and a humidity of 50±20%.
(§4) The above optical filters were kept under each environmental condition for 500 hours and 1000 hours, and light transmittance of the optical filter was measured by using the spectrophotometer after 500 hours and 1000 hours. An absorption retention rate in a maximum absorption wavelength after each environmental accelerated test was obtained from the above equation (2).

Data set [5] in a line: High temperature test of optical filter. Conditions: 80° C. As to the method: A dye-containing diluting agent was prepared such that the dye concentration in the resin was 1000 (wt)ppm when the dye was dispersed and dissolved in a solvent and dried. Subsequently, an acrylic adhesive (a copolymer of butyl acrylate and acrylic acid (Product name: DBBOND, manufactured by Diabond Industry Co., Ltd.) and the dye-containing diluting agent are mixed (weight ratio 80:20), and continuously applied on a mold releasing layer of a mold releasing film comprising a polyethylene terephthalate film and a silicone mold releasing layer according to the bar coating method, and the resulting material was dried. Due to this, an acrylic adhesive containing the dye having a film thickness of 25 μm was prepared. The prepared adhesive was attached to a transparent acrylic resin (manufactured by Mitsubishi Rayon Co., Ltd., Acrylite, thickness: 2 mm), and the mold releasing film of the adhesive was peeled away and an ultraviolet blocking film (manufactured by Teijin Co., Ltd., HB Film, thickness: 75 μm) was attached to give the sample for evaluation. […]
The above optical filters were kept under each environmental condition for 500 hours and 1000 hours, and light transmittance of the optical filter was measured by using the spectrophotometer after 500 hours and 1000 hours. […]

A short description of data set [6]: High temperature/high humidity test of optical filter. Conditions: 60° C. and 90% RH. How it is done: as §3, §4
The nature of data set [7]: Light transmittance of spin-coated optical filter (acrylic adhesive on glass plate). Conditions: 0.1 weight % dye diluting agent mixed with acrylic adhesive, dry film 5 μm. How it is done: (§5) A compound represented by the compound No. 1-4 (Table 1-1) was dissolved in a mixed solvent of acetone and toluene (weight ratio 50:50) such that the concentration was 0.1 weight % to give a dye-containing diluting agent. An acrylic adhesive and the dye-containing diluting agent (weight ratio 50:70) were mixed and applied by spin coating at 800 rpm for 30 seconds onto a glass plate, and the resulting material was dried to prepare an optical filter. The dry film thickness of the coating layer was 5 μm. In the above filter, light transmittance was measured by using a spectrophotometer (UV-3100, manufactured by Shimadzu Corporation). Light transmittance in a wavelength of 550 nm was 47.2%.
as §5, with “2-12” for “1-4”, “2-2) synthesized in the same manner as in Examples 2-1 and 2-2” for “1-1)”, “plate” for “plate,”, “Light transmittance in a wavelength of 550 nm was 47.2%.” left out

Each structure is given as a SMILES string.

For the compound `CCCCCOc1ccc(C2=c3nc(c4c5cccc6cccc(c3=4)c65)C(c3ccc(OCCCCC)cc3)=c3c4c(c5[n]3[Cu][n]3c2c2c(c3C(c3ccc(OCCCCC)cc3)=c3nc(c6c7cccc8cccc(c3=6)c87)C=5c3ccc(OCCCCC)cc3)-c3cccc5cccc-2c35)-c2cccc3cccc-4c23)cc1` [1-2], in data set [1], the “εg (gram absorption coefficient)” value is listed as 154,000 and the λmax came to 553 nm. The “Maximum Absorption Wavelength” value in data set [1] (chloroform solvent) is listed as 553 nm. Besides, the “Ratio of Absorption Coefficient at 525 nm and 550 nm” value in data set [1] (chloroform solvent, coefficient at 550 nm to coefficient at 525 nm) was 2.5. Besides, in data set [2], the “Solubility 0.1%” value is on record as “∘”, the “Solubility 0.2%” value was “∘” and the “Solubility 1.0%” value is “∘”. Also, in data set [3], the “Light Transmittance at 525 nm” value came out at 62.6%, the “Light Transmittance at 550 nm” value is given as 37.2% and the “T@550/T@525 Light Transmittance Ratio” value turned out to be 59%. Also, the “Absorption Retention after Light resistance test for 250 hours” value in data set [4] (50 mW/cm^2, 250 hours, 30±10° C., humidity 50±20%) came out at 95%. Also, the “Absorption retention rate, Artificial sunlight irradiation test, after 500 hours” value in data set [4] (50 mW/cm^2, 500 hours) is recorded as 95%. Also, in data set [4] (50 mW/cm^2, 1000 hours), the “Absorption retention rate, Artificial sunlight irradiation test, After 1000 hours” value is on record as 93%. Further, the “Absorption retention rate, High temperature test, after 500 hours” value in data set [5] (500 hours) is given as 100%. Also, the “Absorption retention rate, High temperature test, After 1000 hours” value in data set [5] (1000 hours) is recorded as 100%. For the same compound, the “Absorption retention rate, High temperature/High humidity test, after 500 hours” value in data set [6] (500 hours) is 91%. For the same compound, the “Absorption retention rate, High temperature/High humidity test, After 1000 hours” value in data set [6] (1000 hours) stood at 90%.

In the case of `CCCCCCCCCCOc1ccc(C2=c3nc(c4c5cccc6cccc(c3=4)c65)C(c3ccc(OCCCCCCCCCC)cc3)=c3c4c(c5[n]3[Cu][n]3c2c2c(c3C(c3ccc(OCCCCCCCCCC)cc3)=c3nc(c6c7cccc8cccc(c3=6)c87)C=5c3ccc(OCCCCCCCCCC)cc3)-c3cccc5cccc-2c35)-c2cccc3cccc-4c23)cc1` [1-4], in data set [1], the “εg (gram absorption coefficient)” value is given as 115,000 and the λmax is given as 552 nm. In data set [2], the “Solubility 0.1%” value is “∘”, the “Solubility 0.2%” value is “∘” and the “Solubility 1.0%” value is given as “∘”. The “Light transmittance in a wavelength of 550 nm” value in data set [7] amounted to 47.2%.
